Laboratory results from publication PMC9154761, “Development of Praziquantel sulphonamide derivatives as antischistosomal drugs” (Journal of Enzyme Inhibition and Medicinal Chemistry, 2022).
Read-outs that look alike come from different tables or passages of the source.

What was measured:
hCA IX = target: T1, hCA IX (Homo sapiens, UniProt Q16790); assay: stopped flow CO2 hydrase assay, hCA IX; type: biochemical; conditions: mean from three different assays
T1 construct: made in house
Procedure: (§1) An Applied Photophysics stopped-flow instrument was used to assay the CA catalysed CO2 hydration activity. […] The CO2 concentrations ranged from 1.7 to 17 mM for the determination of the kinetic parameters and inhibition constants. […] For each inhibitor, at least six traces of the initial 5–10% of the reaction were used to determine the initial velocity. The uncatalyzed rates were determined in the same manner and subtracted from the total observed rates. Stock solutions of the inhibitor (0.1 mM) were prepared in distilled–deionized water and dilutions up to 0.01 nM were done thereafter with the assay buffer. Inhibitor and enzyme solutions were preincubated together for 15 min at room temperature prior to the assay, to allow for the formation of the E–I complex. The inhibition constants were obtained by non-linear least-squares methods using PRISM 3 and the Cheng-Prusoff equation as reported earlier and represent the mean from at least three different determinations. All CA isoforms were recombinant proteins obtained in house, as reported earlier[14]^,[26–29].

hCA IV = target: T2, hCA IV (Homo sapiens, UniProt P22748); assay: stopped flow CO2 hydrase assay, hCA IV; type: biochemical; conditions: mean from three different assays
T2 construct: made in house
Procedure: as §1

SmCA = SmCA (Schistosoma mansoni, UniProt A0A3Q0KSG2); assay: biochemical
Procedure: (§2) An Applied Photophysics stopped-flow instrument was used to assay the CA catalysed CO2 hydration activity. […] The uncatalyzed rates were determined in the same manner and subtracted from the total observed rates. Stock solutions of the inhibitor (0.1 mM) were prepared in distilled–deionized water and dilutions up to 0.01 nM were done thereafter with the assay buffer. Inhibitor and enzyme solutions were preincubated together for 15 min at room temperature prior to the assay, to allow for the formation of the E–I complex. The inhibition constants were obtained by non-linear least-squares methods using PRISM 3 and the Cheng-Prusoff equation as reported earlier and represent the mean from at least three different determinations. All CA isoforms were recombinant proteins obtained in house, as reported earlier[14]^,[26–29].

LdCA = LdCA (Leishmania donovani, UniProt A0A3S5H5R2); assay: biochemical
Procedure: as §2

TcCA = TcCA (Trypanosoma cruzi, UniProt Q4DKE0); type: biochemical; conditions: stopped flow CO2 hydrase assay; mean from three different assays
Procedure: as §2

hCA II = target: T3, hCA II (Homo sapiens, UniProt P00918); assay: stopped flow CO2 hydrase assay, hCA II; type: biochemical; conditions: mean from three different assays, read-out: Ki hCAII
T3 construct: made in house
Procedure: as §1

hCA I = target: T4, hCA I (Homo sapiens, UniProt P00915); assay: stopped flow CO2 hydrase assay, hCA I; type: biochemical; conditions: mean from three different assays
T4 construct: made in house
Procedure: as §1

[1] = tested on: newly transformed schistosomula (NTS); assay: In vitro antischistosomal activity against newly transformed schistosomula (NTS); type: cell-based, Schistosoma mansoni; conditions: 10 μM, after 72 h of exposure, viability via microscopy
Procedure: In vitro studies were carried out in accordance with Swiss national and cantonal regulations on animal welfare under the permission number 2070. The drug sensitivity assays with S. mansoni (adult and newly transformed schistosomules (NTS)) were carried out as described recently. Briefly, to obtain NTS, cercariae were collected from infected Biomphalaria glabrata snails and were mechanically transformed. Adult S. mansoni worms were collected by dissecting the mesenteric veins of infected mice at day 49 postinfection. Approximately 30–40 NTS were incubated with the respective test drug in 250 µL of M199 medium (Gibco, Waltham, MA) supplemented with 5% (v/v) foetal calf serum (FCS) (Bioconcept AG, Switzerland), 1% (v/v) penicillin/streptomycin solution (Sigma–Aldrich, Switzerland) and 1% (v/v) antibacterial/antifungal solution for up to 72 h at 37 °C and 5% CO2. The drug was tested at 10 µM in triplicate and repeated once. Three adult S. mansoni were incubated in a final volume of 2 mL rpmI 1640 supplemented with 5% (v/v) FCS and 1% (v/v) penicillin/streptomycin at 37 °C and 5% CO2 for 72 h at 10 µM. The experiment was conducted in duplicate. Worms were judged via microscopic readout 72 h after incubation; they were scored according to phenotypic reference points such as motility, morphology and granularity (scores from 0 to 3).

[2] = stopped flow CO2 hydrase assay, mean from three different assays, read-out: Ki SmCA
[3] = stopped flow CO2 hydrase assay, mean from three different assays, read-out: Ki LdCA

T2 sequence (P22748 19-312): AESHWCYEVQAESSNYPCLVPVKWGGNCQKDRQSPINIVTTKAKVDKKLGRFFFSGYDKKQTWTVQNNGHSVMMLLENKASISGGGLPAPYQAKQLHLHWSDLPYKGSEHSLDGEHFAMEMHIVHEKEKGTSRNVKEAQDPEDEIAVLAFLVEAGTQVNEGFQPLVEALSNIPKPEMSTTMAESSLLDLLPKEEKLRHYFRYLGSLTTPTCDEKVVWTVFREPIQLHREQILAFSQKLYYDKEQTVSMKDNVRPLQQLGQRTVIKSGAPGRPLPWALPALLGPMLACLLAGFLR
Chain of LdCA (A0A3S5H5R2 entry or part of it): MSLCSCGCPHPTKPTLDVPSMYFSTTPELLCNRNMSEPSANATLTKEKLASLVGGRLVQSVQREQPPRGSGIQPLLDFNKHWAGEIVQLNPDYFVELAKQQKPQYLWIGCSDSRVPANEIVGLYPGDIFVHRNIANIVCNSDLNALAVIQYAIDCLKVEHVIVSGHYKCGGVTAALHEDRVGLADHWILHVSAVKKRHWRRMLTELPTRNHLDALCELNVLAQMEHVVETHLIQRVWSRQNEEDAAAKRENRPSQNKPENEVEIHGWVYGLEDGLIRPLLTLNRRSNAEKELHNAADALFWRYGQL
Chain of TcCA (Q4DKE0 entry or part of it): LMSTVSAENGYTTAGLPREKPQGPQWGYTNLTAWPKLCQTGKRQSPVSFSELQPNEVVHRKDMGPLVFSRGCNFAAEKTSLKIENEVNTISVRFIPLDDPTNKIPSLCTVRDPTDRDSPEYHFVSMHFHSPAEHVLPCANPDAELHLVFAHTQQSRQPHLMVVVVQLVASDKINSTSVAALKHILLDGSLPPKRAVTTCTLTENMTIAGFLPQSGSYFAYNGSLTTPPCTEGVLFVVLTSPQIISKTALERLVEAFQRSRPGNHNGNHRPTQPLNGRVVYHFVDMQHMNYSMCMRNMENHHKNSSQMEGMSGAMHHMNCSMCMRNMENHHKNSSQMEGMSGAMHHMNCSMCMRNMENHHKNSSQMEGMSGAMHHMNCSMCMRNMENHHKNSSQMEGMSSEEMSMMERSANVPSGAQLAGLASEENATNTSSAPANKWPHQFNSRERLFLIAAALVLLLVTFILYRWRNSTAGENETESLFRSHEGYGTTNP
Chain of SmCA (A0A3Q0KSG2 entry or part of it): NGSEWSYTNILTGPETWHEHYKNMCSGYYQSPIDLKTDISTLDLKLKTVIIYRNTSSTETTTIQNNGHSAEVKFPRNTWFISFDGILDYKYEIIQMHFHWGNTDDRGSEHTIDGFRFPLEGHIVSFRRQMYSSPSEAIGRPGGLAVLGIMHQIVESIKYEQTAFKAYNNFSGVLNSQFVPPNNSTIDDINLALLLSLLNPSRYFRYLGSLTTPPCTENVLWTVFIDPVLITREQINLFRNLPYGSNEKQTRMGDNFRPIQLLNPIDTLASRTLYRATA
T4 sequence (P00915 whole entry): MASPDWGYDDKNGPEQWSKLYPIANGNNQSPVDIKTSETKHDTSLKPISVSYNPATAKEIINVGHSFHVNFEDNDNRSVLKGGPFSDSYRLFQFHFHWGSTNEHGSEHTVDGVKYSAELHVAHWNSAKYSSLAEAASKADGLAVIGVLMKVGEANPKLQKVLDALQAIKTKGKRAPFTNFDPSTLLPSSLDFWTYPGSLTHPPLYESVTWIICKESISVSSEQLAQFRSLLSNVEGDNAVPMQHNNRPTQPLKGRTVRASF

Row | Molecule | Ki (hCA IX) | Ki (hCA IV) | Ki (SmCA; [2]) | Ki (LdCA; [3]) | Ki (TcCA) | Ki (hCA II) | Ki (hCA I) | Ki (SmCA) | Ki (LdCA) | activity against NTS [1]
1 | 3–(3-(3–(4-Oxo-1,3,4,6,7,11b-hexahydro-2H-pyrazino[2,1-a]isoquinoline-2-carbonyl) phenyl)ureido)benzenesulfonamide [Compound 31b] | 31.2 ± 1.6 nM | 451 ± 24.3 nM | 2490 ± 144 nM | 323 ± 16.7 nM | 309 ± 33.4 nM |  |  |  |  | 
2 | 3–(3-(4–(4-Oxo-1,3,4,6,7,11b-hexahydro-2H-pyrazino[2,1-a]isoquinoline-2-carbonyl) phenyl)ureido)benzenesulfonamide [Compound 31d] | 138 ± 7.8 nM | 320 ± 32.7 nM | 764 ± 68.3 nM | 82.8 ± 5.5 nM | 393 ± 24.7 nM |  |  |  |  | 
3 | 4–(3-(3–(4-Oxo-1,3,4,6,7,11b-hexahydro-2H-pyrazino[2,1-a]isoquinoline-2-carbonyl) phenyl)ureido)benzenesulfonamide [Compound 31a] | 280 ± 15.4 nM | 180 ± 19.5 nM | 8.8 ± 0.8 nM | 248 ± 15.9 nM | 1650 ± 129 nM |  |  |  |  | 
4 | 4–(3-(4–(4-Oxo-1,3,4,6,7,11b-hexahydro-2H-pyrazino[2,1-a]isoquinoline-2-carbonyl) phenyl)ureido)benzenesulfonamide [Compound 31c] | 31.1 ± 2.9 nM | 8700 ± 559 nM | 62.8 ± 4 nM | 401 ± 20.7 nM | 589 ± 37 nM |  |  |  |  | 
5 | NS(=O)(=O)c1ccc(C(=O)N2CC(=O)N3CCc4ccccc4C3C2)cc1 (stereo not drawn) [Compound 4a, 4–(4-Oxo-1,3,4,6,7,11b-hexahydro-2H-pyrazino[2,1-a]isoquinoline-2-carbonyl) benzenesulfonamide] | 30.3 ± 3 nM | 8860 ± 617 nM | 1890 ± 195 nM | 371 ± 26.9 nM |  | 44.6 ± 3.4 nM | 93.8 ± 8.8 nM |  |  | 
6 | NS(=O)(=O)c1ccc(NC(=S)Nc2ccc([Se]Cc3ccc(C(=O)N4CC(=O)N5CCc6ccccc6C5C4)cc3)cc2)cc1 (stereo not drawn) [Compound 9, 4–(3-(4-((4–(4-oxo-1,3,4,6,7,11b-hexahydro-2H-pyrazino[2,1-a]isoquinoline-2-carbonyl)benzyl)selanyl)phenyl)thioureido)benzenesulfonamide] | 174 ± 17.2 nM | 966 ± 82.8 nM |  |  |  | 131 ± 14 nM | 486 ± 24.9 nM | 771 ± 40.1 nM | 276 ± 22.4 nM | 
7 | NS(=O)(=O)c1ccc(NC(=O)NCc2ccc(C(=O)N3CC(=O)N4CCc5ccccc5C4C3)cc2)cc1 (stereo not drawn) [Compound 28a, 4–(3-(4–(4-Oxo-1,3,4,6,7,11b-hexahydro-2H-pyrazino[2,1-a]isoquinoline-2-carbonyl)benzyl)ureido)benzenesulfonamide] | 31.8 ± 1.8 nM | 548 ± 29.6 nM | 614 ± 50.6 nM | 340 ± 33.9 nM |  | 8.2 ± 0.7 nM | 74.4 ± 3.9 nM |  |  | over 30%
8 | NS(=O)(=O)c1cccc(NC(=O)NCc2ccc(C(=O)N3CC(=O)N4CCc5ccccc5C4C3)cc2)c1 (stereo not drawn) [Compound 28b, 3–(3-(4–(4-Oxo-1,3,4,6,7,11b-hexahydro-2H-pyrazino[2,1-a]isoquinoline-2-carbonyl)benzyl)ureido)benzenesulfonamide] | 29.9 ± 1.6 nM | 851 ± 56.2 nM | 824 ± 66.8 nM | 300 ± 30.5 nM |  | 14.9 ± 1.5 nM | 96.5 ± 6.5 nM |  |  | 
9 | NS(=O)(=O)c1ccc(NC(=O)NCc2ccc(C(=O)Nc3nc(CC(=O)N4CC(=O)N5CCc6ccccc6C5C4)cs3)cc2)cc1 (stereo not drawn) [Compound 29a, N-(4–(2-oxo-2–(4-oxo-1,3,4,6,7,11b-hexahydro-2H-pyrazino[2,1-a]isoquinolin-2-yl)ethyl)thiazol-2-yl)-4-((3–(4-sulfamoylphenyl)ureido)methyl)benzamide] | 31.9 ± 1.9 nM | 541 ± 30.3 nM | 1640 ± 97 nM | 85.5 ± 6.77 nM |  | 49.6 ± 3.2 nM | 314 ± 30.5 nM |  |  | 
10 | NS(=O)(=O)c1cccc(NC(=O)NCc2ccc(C(=O)Nc3nc(CC(=O)N4CC(=O)N5CCc6ccccc6C5C4)cs3)cc2)c1 (stereo not drawn) [Compound 29b, N-(4–(2-oxo-2–(4-oxo-1,3,4,6,7,11b-hexahydro-2H-pyrazino[2,1-a]isoquinolin-2-yl)ethyl)thiazol-2-yl)-4-((3–(3-sulfamoylphenyl)ureido)methyl)benzamide] | 199 ± 17.6 nM | 789 ± 66.2 nM | 901 ± 77.6 nM | 218 ± 17.9 nM |  | 7.1 ± 0.6 nM | 506 ± 27.9 nM |  |  | 
11 | NS(=O)(=O)c1ccc(C(=O)Nc2nc(CC(=O)N3CC(=O)N4CCc5ccccc5C4C3)cs2)cc1 (stereo not drawn) [Compound 30, N-(4–(2-oxo-2–(4-oxo-1,3,4,6,7,11b-hexahydro-2H-pyrazino[2,1-a]isoquinolin-2-yl)ethyl)thiazol-2-yl)-4-sulfamoylbenzamide] | 119 ± 12.4 nM | 422 ± 26.6 nM | 7.8 ± 0.6 nM | 81.3 ± 6.4 nM |  | 8.5 ± 0.5 nM | 58.6 ± 6.2 nM |  |  | 
12 | NS(=O)(=O)c1ccc(CNC(=O)Nc2ccc(C(=O)N3CC(=O)N4CCc5ccccc5C4C3)cc2)cc1 (stereo not drawn) [Compound 32, 4-((3–(4-(4-Oxo-1,3,4,6,7,11b-hexahydro-2H-pyrazino[2,1-a]isoquinoline-2-carbonyl)phenyl)ureido)methyl)benzenesulfonamide] | 112 ± 11.3 nM | 665 ± 47.3 nM | 6350 ± 472 nM | 401 ± 34.8 nM |  | 26.5 ± 2.4 nM | 80.7 ± 4.8 nM |  |  | 
13 | NS(=O)(=O)c1ccc(CCNC(=O)Nc2ccc(C(=O)N3CC(=O)N4CCc5ccccc5C4C3)cn2)cc1 (stereo not drawn) [Compound 33, 4–(2-(3–(5-(4-Oxo-1,3,4,6,7,11b-hexahydro-2H-pyrazino[2,1-a]isoquinoline-2-carbonyl)pyridin-2-yl)ureido)ethyl)benzenesulfonamide] | 90.9 ± 9.6 nM | 6810 ± 379 nM | 581 ± 32.5 nM | 87.5 ± 4.9 nM |  | 49.2 ± 3.5 nM | 128 ± 11.9 nM |  |  | 
14 | NS(=O)(=O)c1cccc(NC(=O)N2CC(=O)N3CCc4ccccc4C3C2)c1 (stereo not drawn) [Compound 34b, 4-Oxo-N-(3-sulfamoylphenyl)-1,3,4,6,7,11b-hexahydro-2H-pyrazino[2,1-a]isoquinoline-2-carboxamide] | 91.9 ± 8.8 nM | 517 ± 52.4 nM | 7200 ± 661 nM | 347 ± 34.3 nM |  | 45.6 ± 3 nM | 409 ± 23.3 nM |  |  | 
15 | NS(=O)(=O)c1ccc(NC(=S)N2CC(=O)N3CCc4ccccc4C3C2)cc1 (stereo not drawn) [Compound 35a, 4-Oxo-N-(4-sulfamoylphenyl)-1,3,4,6,7,11b-hexahydro-2H-pyrazino[2,1-a]isoquinoline-2-carbothioamide] | 82.2 ± 8.6 nM | 7110 ± 404 nM | 79.4 ± 4.2 nM | 323 ± 22.2 nM |  | 53.9 ± 4.4 nM | 303 ± 24.1 nM |  |  | 
16 | NS(=O)(=O)c1cccc(NC(=S)N2CC(=O)N3CCc4ccccc4C3C2)c1 (stereo not drawn) [Compound 35b, 4-Oxo-N-(3-sulfamoylphenyl)-1,3,4,6,7,11b-hexahydro-2H-pyrazino[2,1-a]isoquinoline-2-carbothioamide] | 83.3 ± 7.3 nM | 47.9 ± 4.1 nM | 6150 ± 612 nM | 237 ± 12.5 nM |  | 8 ± 0.8 nM | 86.5 ± 9 nM |  |  | 
17 | NS(=O)(=O)c1ccc(CCNC(=S)N2CC(=O)N3CCc4ccccc4C3C2)cc1 (stereo not drawn) [Compound 35c, 4-Oxo-N-(4-sulfamoylphenethyl)-1,3,4,6,7,11b-hexahydro-2H-pyrazino[2,1-a]isoquinoline-2-carbothioamide] | 97.1 ± 7.9 nM | 8270 ± 719 nM | 5 ± 0.5 nM | 485 ± 46 nM |  | 7.6 ± 0.4 nM | 64 ± 5.4 nM |  |  | 
18 | O=C(C1CCCCC1)N1CC(=O)N2CCc3ccccc3C2C1 (stereo not drawn) [PZQ, Praziquantel] | > 10000 nM | > 10000 nM | > 10000 nM | > 10000 nM |  | > 10000 nM | > 10000 nM |  |  | 
